The results in this text go back to patent US20060069152A1, “Crystalline mycophenolate sodium” (priority 2004, published 2006).

The nature of series [1]: Hygroscopicity: crystal forms exposed to different levels of humidity for one week, then analysed by TGA and XRD. The series is classed as physicochemical. The settings on record: for LOD(%): one week, TGA. Here is the method: The hygroscopicity of monosodium mycophenolate crystal forms M1, M2, M3 and disodium mycophenolate crystal forms D1 and D1±D2 were also investigated. Form M1, M2, M3, D1 and D1±D2 were exposed to different level of humidity for one week and after equilibrium they were analysed by TGA and XRD for water content and crystal structure. Table 5 summarizes the results:
(§1) ARL X-ray powder diffractometer model X′TRA-030, Peltier detector, round standard aluminum sample holder with round zero background quartz plate was used. Scanning parameters: Range: 2-40 deg. 2 θ, continuous Scan, Rate: 3 deg./min. The accuracy of peak positions is defined as ±/−0.2 degrees due to experimental differences like instrumentations, sample preparations etc.
• TGA/SDTA 851^e, Mettler Toledo, Sample weight 7-15 mg. • Heating rate: 10° C./min., In N2 stream: flow rate=50 ml/min • Scan range: 30-250° C. Microscope
200 mg of each of the following samples: crystal Form M2, crystal Form M3 and crystal Form D1 were put at room temperature into a hygroscopicity chamber containing 100% relative humidity for one week. After one week they were measured again by XRD to determine their crystal forms.

A short description of series [2]: Crystal form transformation by heating in an oven at atmospheric pressure, XRD before and after. The settings on record: for Crystal form after heating (XRD): 30 min., atmospheric pressure. In kind it is physicochemical. Here is the method: Representatives of all monosodium and disodium mycophenolate crystal forms, M1, M2, M1±M3, D1 and D1±D2 were heated in an oven at atmospheric pressure at 130° C. and 170° C. for 30 minutes. The samples were analyzed by XRD before and after heating.
as §1
200 mg of a mixture of Forms M1±M3 as identified by XRD, was put into an oven in a glass weighing bottle at 170° C. for 0.5 h. Then it was put into a desiccator and allowed to cool to room temperature. […] Transformation of M2 to M1, M3 to M1 and D1 to D2 by water vapors absorption

Read-outs that look alike come from different tables or passages of the source.

On to `COc1c(C)c2c(c([O-])c1C/C=C(\C)CCC(=O)[O-])C(=O)OC2.[Na+].[Na+]` [Form D2, disodium mycophenolate], for which the “relative stability of the form at high relative humidity” value in series [1] (room temperature, high relative humidity) was “the most stable form at room temperature, at high relative humidity”.
As for `COc1c(C)c2c(c([O-])c1C/C=C(\C)CCC(=O)[O-])C(=O)OC2.[Na+].[Na+]` [Form D1, disodium mycophenolate], the “LOD(%)” value in series [1] (40% RH, listed as D1) worked out at 2.17%; in series [1] (60% RH), 11.64%; in series [1] (80% RH, listed as D1), 17.20%; in series [1] (100% RH, listed as D1), 31.87%. Moreover, the “relative stability of the form at high temperature” value in series [2] is “the most stable forms at high temperature”.
As to `COc1c(C)c2c(c(O)c1C/C=C(\C)CCC(=O)O)C(=O)OC2` [Form M2, mycophenolate sodium], in series [2] (heating at 130° C. and 170° C.), the “relative stability of the form at high temperature” value is listed as “the most stable forms at high temperature”.
In the case of `COc1c(C)c2c(c(O)c1C/C=C(\C)CCC(=O)[O-])C(=O)OC2.[Na+]` [M1 + M3, mycophenolate sodium], the “Crystal form after heating (XRD)” value is “M3 > Ml” in series [2] (130° C.) and “Form M2” in series [2] (170° C.).
On to `COc1c(C)c2c(c([O-])c1C/C=C(\C)CCC(=O)[O-])C(=O)OC2.[Na+].[Na+]` [disodium mycophenolate], for which, in series [1] (after humidity exposure), the equilibrium water content entry was “about 17%”.
Regarding `COc1c(C)c2c(c(O)c1C/C=C(\C)CCC(=O)O)C(=O)OC2` [Form M1, mycophenolate sodium], the “relative stability of the form at high relative humidity” value in series [1] is on record as “the most stable form at room temperature, at high relative humidity”.
For the molecule `COc1c(C)c2c(c([O-])c1C/C=C(\C)CCC(=O)[O-])C(=O)OC2.[Na+].[Na+]` [D1 + D2, disodium mycophenolate], the “LOD(%)” value is recorded as 10.2% in series [1] (20% RH), 10.3% in series [1] (40% RH), 16.9% in series [1] (80% RH) and 42.1% in series [1] (100% RH).
